This note sets out measurements from patent US9833425B2, “Gentisic acid is used to improve systemic hemodynamics, hepatic mitochondrial function and lactate acidemia in patients with septic shock” (priority 2015, dated 2017).

Data set [1] concerns mitochondrial complex IV (cytochrome c oxidase). Put plainly: Enzymatic activity of hepatic mitochondrial complex IV. It is filed as biochemical, dog. To be noted: hepatic mitochondria of treated septic dogs; mean ± SD. From the text: As part of our assessment of mitochondrial function, we also measured the enzymatic activity of hepatic mitochondrial complex IV based on the rationale of Levy et al (10), since these investigators considered that dysfunction of complex IV was the most important determinant of abnormal mitochondrial function in SS. We determined complex IV activity spectrophotometrically by a temperature-controlled Ultrospec™ 2100 ultraviolet-visible spectrophotometer (Biopharmacia Biotech, Uppsala, Sweden) (17). Complex IV activity was measured at 25° C. by monitoring the absorbance decrease of reduced cytochrome c at 550 nm.

Another data set relates to hepatic mitochondria. Put plainly: Oxygen consumption rates of hepatic mitochondria harvested after in vivo treatment (Seahorse XF24). Set-up: species or system dog. To be noted: treated septic dogs; FCCP 4 uM. How it is done: After completion of the in-vivo measurements, we administered sodium pentobarbital (110 mg/kg) to euthanize the animal. In a subset of animals of each group, we immediately harvested a piece of liver and isolated the mitochondria as described by Schnaitman and Greenawalt (23). Briefly, we minced the extracted liver in mitochondrial isolation buffer (MSHE) that includes 70 mM sucrose, 210 mM mannitol, 5 mM HEPES, 1 mM EGTA, and fatty acid free bovine serum albumin (BSA). We then disrupted the tissue using a drill-driven glass/Teflon dounce homogenizer. We centrifuged the homogenate three times, after which we re-suspended the final pellet in a minimal volume of MSHE+BSA and determined protein (mg/ml). We diluted the mitochondrial preparation in cold mitochondrial assay solution (MAS) that contained 70 mM sucrose, 220 mM mannitol, 10 mM KH2PO4, 5 mM MgCl2, 2 mM HEPES, 1 mM EGTA, and BSA for plating directly onto the custom Seahorse 24-well culture dish (˜20 ug mitochondrial protein/50 ul per well; see further below). After centrifugation of the plate and addition of appropriate substrates, we viewed the mitochondria under a microscope to ensure consistent adherence to the well. We then transferred the plate to the XF24 Analyzer for initiation of the protocol as described below (17).
To examine mitochondrial function in this model, we used a novel new technology that is capable of measuring dynamic changes in mitochondrial function, not easily attainable by other technologies (17). The Seahorse® XF24 extracellular flux analyser (Seahorse Bioscience, MA, USA) refines the technology by which mitochondrial oxygen consumption can be measured. This technology uses a piston to reversibly enclose a small volume (7 ul) above the mitochondria that can monitor oxygen uptake in that volume for 2-5 min, then raises the piston, allowing the bulk incubation medium (˜1 ml) to re-equilibrate. The ability to make up to 4 additions during the experiment allows mitochondrial respiration to be measured under various metabolic conditions. This piece of equipment has never been used to measure mitochondrial function in SS.
In this protocol, we sequentially measured mitochondrial function under various metabolic conditions (17). To obtain basal OCR, we first added a substrate to the preparation that contained pyruvate (10 mM) and malate (2 mM). We then added ADP (adenosine-diphosphate; 4 mM) that allows ATP synthase to function, producing an increase in OCR (coupled OCR) that is termed “state3ADP”. When the ATP/ADP ratio approaches equilibrium, pmf rises, after which proton reentry through the synthase stops and respiration slows. We terminated coupled respiration (i.e. state3ADP) by the addition of the ATP synthase inhibitor oligomycin (2.0 uM) in which we achieved “stateoligomycin” where ATP recycling cannot contribute and there is a stable decrease in OCR. We then added the protonophore, FCCP (4 uM; carbonyl cyanide p-trifluoromethoxy-phenylhydrazone). FCCP leads to uncoupled respiration in which we previously titrated the concentration of FCCP to yield a maximal effect. In mitochondria in which ATP synthase activity is a limiting factor, uncoupled respiration may be greater than coupled respiration. […] We finally added rotenone (R; 2 uM) and antimycin A (AA; 2 uM) which are inhibitors of the electron transport chain (ETC) complexes, I and III, respectively. When added to the mitochondrial preparation, these inhibitors produce a marked decline in mitochondrial respiration since the electron transport chain is inhibited.
With each treatment group, we obtained measurements of basal OCR, coupled OCR (i.e. state3ADP), and maximal OCR. In addition, we calculated coupled and uncoupled respiratory control ratios from state3ADP/stateoligomycin and uncoupled respiration/state FCCP/stateoligomycin, respectively. […]

Data set [2] concerns canine model of septic shock (Pseudomonas aeruginosa). As to conditions: for Arterial pH / LD (lactate dehydrogenase) / Oxygen delivery: mean ± SD. The protocol:
We used a bacteremic model of Pseudomonas aeruginosa in this study as previously described (20). We used this particular model, since we wanted to measure mitochondrial function and LA under conditions of an acute and intensive inflammatory response analogous to that which would occur in a severe bout of SS in the clinical condition. […] Over the course of the experiment, we studied the animals (18 to 26 kg) while anesthetized with sufentanil citrate (0.05-0.3 ug/kg/min) and midazolam (5 ug/kg/min), and while being ventilated receiving 100% oxygen to maintain arterial around PO2 ˜400 mmHg. We adjusted the ventilator rate over the course of the study to attenuate the development of the metabolic acidosis that is usually observed (20).
To assess hemodynamics in this model, we inserted vascular catheters under sterile conditions as previously described (20), after which we connected the catheters to pressure transducers (Cobe, Argon) that were referenced relative to the left atrium and connected to a chart recorder (Astro-Med, W Warwick, R.I.). To measure MAP, we inserted a polyethylene catheter into the right femoral artery, while to measure pulmonary vascular pressures, we inserted a Swanz-Ganz catheter (Edwards Lifesciences, Irvine, Calif.) by percutaneous techniques through the right jugular vein. From the Swanz-Ganz catheter, we obtained measurements of pulmonary arterial pressure (Ppa), wedge pressure (Pwp), and right atrial pressure (Rap), as well as determinations of thermodilution cardiac output (CO).
From the hemodynamic measurements, we calculated SV from CO/heart rates (HR), stroke work (SW) from [SV*(MAP−Pwp)], and systemic vascular resistance (SVR) from [(MAP-Rap)/CO)*80]. We also normalized measurements of SV, SW, and CO and organ oxygen delivery (DO2) to body weight. We calculated DO2 from CO×Hb×1.34 ml oxygen per gram of Hb, since Hb was 100% saturated at a PO2 of ˜400 mmHg. From the arterial catheter and distal port of the Swanz-Ganz catheter, we also took arterial and mixed venous blood samples, respectively, for analyses of PO2, PCO2, and pH.
In addition, we placed another polyethylene catheter into the left jugular vein, also by percutaneous techniques, for infusion of the bacteria and intravenous fluids and for obtaining blood chemistry and hematological samples. Since the baseline Pwp found in this model usually averages≈8-10 mmHg, we infused normal saline solution as necessary to maintain Pwp relatively constant over the duration of this study. […] The Clinical Chemistry Laboratory at the Health Sciences Centre performed the clinical laboratory tests.
We included 5 groups of animals in the initial phase of this study. These groups included a septic control group, a non-septic control group, a norepinephrine (NE) septic group, a gentisic acid sodium salt (GSS) septic group, and a GSS non-septic group. In each group, we made baseline measurements of hemodynamics and blood parameters after approximately 1 hr period of stability. In the septic groups, after initiation of the bacterial infusion, we repeated the measurements in the septic shock condition. […] In the septic control group, after the SS condition, we started an infusion of 5% dextrose in water (D5W) at approximately 40 ml/hr for the remainder of the study, since D5W was the diluent for both the NE and GSS treatments.
In all groups, we then made posttreatment measurements at 3 hrs and 5 hrs after completion of the septic shock/sham-shock determinations.
In this supplemental study, we examined the effect of gallic acid on hemodynamics and mitochondrial function in our Pseudomonas aeruginosa model in a manner identical to that described for GSS treatment.

[3] abbreviates: septic dogs, 3 hrs posttreatment.
Where [4] appears, read: septic dogs, 5 hrs posttreatment.
[5] abbreviates: septic dogs, baseline (before bacteria/treatment).
Setting [6] is: septic dogs, septic shock (before treatment).

SMILES strings stand for the structures. “Also recorded” adds a separate entry of the source. Like-named read-outs stand apart in the source and are kept apart here. Marks after values point to notes of the source that are not given here.

Regarding `NC[C@H](O)c1ccc(O)c(O)c1` [NE, norepinephrine], in data set [1], the “enzymatic activity of mitochondrial complex IV” value is listed as 3.89±0.33 umol/min/mg protein. Further, in the data set on hepatic mitochondria, the “maximal (uncoupled) respiration (OCR after FCCP) of hepatic mitochondria” value is on record as “restore the increase in OCR in response to FCCP”. Besides, the “effect of treatment on troponin (index of myocardial injury)” value in data set [2] (dog, in vivo) is reported as “increased in the NE septic group”. The “effect of treatment on stroke work index” value in data set [2] (septic dogs, 3 hr and 5 hr vs septic control group, did not reach statistical significance) is “an increase in stroke work index”. Besides, the “effect of treatment on systemic vascular resistance (SVR)” value in data set [2] (septic dogs, 3 hrs and 5 hrs posttreatment vs septic shock condition) was “increased SVR back to the baseline value; also recorded: an increase in SVR”. The “Arterial pH” value in data set [2] (setting [3]) is listed as 7.20 ± .04*^+$; in data set [2] (setting [4]), 7.16 ± 0.06*^+$; in data set [2] (setting [5]) it was 7.38 ± .05; in data set [2] (setting [6]), 7.26 ± .04*^+$. Further, the “LD (lactate dehydrogenase)” value in data set [2] (setting [3]) is recorded as 315 ± 113*^+$ IU; in data set [2] (setting [4]) it was 409 ± 167*^+$^ IU; in data set [2] (setting [5]) it was 43 ± 23 IU; in data set [2] (setting [6]), 177 ± 97*^+ IU. Besides, the Oxygen delivery in data set [2] (setting [3]) amounted to 29 ± 8 mL/min/kg; in data set [2] (setting [4]), 28 ± 10 mL/min/kg; in data set [2] (setting [5]) it was 20 ± 3 mL/min/kg; in data set [2] (septic dogs, septic shock condition (before treatment)), 26 ± 11 mL/min/kg. Besides, the “effect of treatment on mean arterial pressure (MAP)” value in data set [2] (septic dogs, infusion started at septic shock condition, 3 hr and 5 hr post treatment) is listed as “increased MAP back to the baseline value; also recorded: return in MAP to baseline”. In addition, the “effect of treatment on blood lactate concentration” value in data set [2] (septic dogs, over the course of the study) is given as “serum lactate increased; also recorded: significantly increased”. Moreover, in data set [2] (septic dogs, vs septic control group and gentisic septic group), the “effect of treatment on oxygen delivery (DO2)” value is recorded as “increase in DO2”.
